Assay results published in patent publication US20230302150A1, “ANTIBODY-TLR AGONIST CONJUGATES, METHODS AND USES THEREOF” (Ambrx, Inc., priority 2020, published 2023).
Like-named read-outs stand apart in the source and are kept apart here.

Molecular target: T1, hTLR7 (Homo sapiens, UniProt Q9NYK1)
T1 construct: expressed in transfected cells; host or cells: HEK-Blue hTLR7 reporter cell line
T1 sequence (Q9NYK1 27-1049): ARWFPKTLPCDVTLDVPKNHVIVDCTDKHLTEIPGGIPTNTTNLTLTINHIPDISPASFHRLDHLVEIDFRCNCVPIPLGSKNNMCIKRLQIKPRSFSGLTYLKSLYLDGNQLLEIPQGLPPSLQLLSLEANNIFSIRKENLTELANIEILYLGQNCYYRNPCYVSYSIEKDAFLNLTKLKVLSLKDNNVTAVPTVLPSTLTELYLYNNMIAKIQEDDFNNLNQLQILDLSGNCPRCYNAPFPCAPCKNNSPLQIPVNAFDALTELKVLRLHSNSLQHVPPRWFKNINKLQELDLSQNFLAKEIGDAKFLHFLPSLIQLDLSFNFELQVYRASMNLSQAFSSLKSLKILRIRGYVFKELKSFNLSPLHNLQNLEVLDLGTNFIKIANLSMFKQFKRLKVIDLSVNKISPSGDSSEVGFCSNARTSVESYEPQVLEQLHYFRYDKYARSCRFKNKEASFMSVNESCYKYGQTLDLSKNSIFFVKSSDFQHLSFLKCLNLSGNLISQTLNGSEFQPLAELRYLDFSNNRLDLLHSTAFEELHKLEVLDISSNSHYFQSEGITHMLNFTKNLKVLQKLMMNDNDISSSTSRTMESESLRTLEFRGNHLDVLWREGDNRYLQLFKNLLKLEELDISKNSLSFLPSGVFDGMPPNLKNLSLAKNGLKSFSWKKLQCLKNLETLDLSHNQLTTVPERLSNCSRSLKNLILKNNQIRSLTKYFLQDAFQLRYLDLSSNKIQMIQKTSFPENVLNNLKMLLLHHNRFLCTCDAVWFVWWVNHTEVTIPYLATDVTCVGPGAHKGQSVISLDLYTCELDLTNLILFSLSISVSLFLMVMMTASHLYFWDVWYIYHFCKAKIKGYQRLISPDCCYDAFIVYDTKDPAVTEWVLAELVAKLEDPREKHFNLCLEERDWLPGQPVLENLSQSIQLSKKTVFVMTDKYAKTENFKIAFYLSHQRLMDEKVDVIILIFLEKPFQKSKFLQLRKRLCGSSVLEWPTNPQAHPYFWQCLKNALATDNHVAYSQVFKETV
Assay: HEK-Blue hTLR7 reporter assay (NF-kB-induced SEAP, Quanti-Blue)
Type: cell-based
Description: HEK-Blue™ hTLR7 cells were incubated in HEK-Blue™ Detection medium and stimulated with increasing concentrations of TLR7 or TLR8 or TLR7/8 agonists. […] The EC50 was determined from dose-response curve using Prism Software.

[1] = Table 11, TLR7 activities, read-out: EC50
[2] = Table 18, TLR7, PEG shielding, read-out: EC50

CCCCOc1nc(N)c2[nH]c(=O)n(Cc3ccc(CN4CCC(CCNC(=O)CCC(N)CCC(=O)NCCC5CCN(Cc6ccc(Cn7c(=O)[nH]c8c(N)nc(OCCCC)nc87)cc6)CC5)CC4)cc3)c2n1 [AXC-888, 4-amino-N1,N7-bis(2-(1-(4-((6-amino-2-butoxy-8-oxo-7H-purin-9(8H)-yl)methyl)benzyl)piperidin-4-yl)ethyl)heptanediamide] was tested, and the EC50 [1] was 468 nM.

CCCCOc1nc(N)c2[nH]c(=O)n(Cc3ccc(CN4CCC(CCNC(=O)CCC(CCC(=O)NCCC5CCN(Cc6ccc(Cn7c(=O)[nH]c8c(N)nc(OCCCC)nc87)cc6)CC5)NC(=O)CON)CC4)cc3)c2n1 [AXC-889, N1,N7-bis(2-(1-(4-((6-amino-2-butoxy-8-oxo-7H-purin-9(8H)-yl)methyl)benzyl)piperidin-4-yl)ethyl)-4-(2-(aminooxy)acetamido)heptanediamide] gave an EC50 (Table 12, TLR7 agonists attached to a linker, read-out: TLR Agonist Payload + Linkers EC50) of 697 nM.

In the case of CCCCOc1nc(N)c2[nH]c(=O)n(Cc3ccc(CN4CCC(CCNC(=O)C(C)C)CC4)cc3)c2n1 [AXC-890, N-(2-(1-(4-((6-amino-2-butoxy-8-oxo-7H-purin-9(8H)-yl)methyl)benzyl)piperidin-4-yl)ethyl)isobutyramide], the EC50 [1] is reported as 15.3 nM.

Work on CCCCOc1nc(N)c2[nH]c(=O)n(Cc3ccc(CN4CCC(CCNC(=O)[C@H](C)N)CC4)cc3)c2n1 [AXC-891, (S)-2-amino-N-(2-(1-(4-((6-amino-2-butoxy-8-oxo-7H-purin-9(8H)-yl)methyl)benzyl)piperidin-4-yl)ethyl)propanamide] yielded an EC50 (Table 13, TLR7, read-out: EC50) of 47 nM.

In the case of CCCCOc1nc(N)c2[nH]c(=O)n(Cc3ccc(CN4CCC(CCNC(=O)[C@@H](N)CCCNC(=N)N)CC4)cc3)c2n1 [AXC-892, (S)-2-amino-N-(2-(1-(4-((6-amino-2-butoxy-8-oxo-7H-purin-9(8H)-yl)methyl)benzyl)piperidin-4-yl)ethyl)-5-guanidinopentanamide], the EC50 (Table 13, TLR7, read-out: EC50) is reported as 73 nM.

Molecule CCCCOc1nc(N)c2[nH]c(=O)n(Cc3ccc(CN4CCC(CCN(CC(C)C)C(=O)CCOCCON)CC4)cc3)c2n1 [AXC-893, N-(2-(1-(4-((6-amino-2-butoxy-8-oxo-7H-purin-9(8H)-yl)methyl)benzyl)piperidin-4-yl)ethyl)-3-(2-(aminooxy)ethoxy)-N-isobutylpropanamide] has an EC50 (Table 13, TLR7, read-out: EC50) of 3120 nM.

Work on CCCCOc1nc(N)c2[nH]c(=O)n(Cc3ccc(CN4CCCCC4)cc3)c2n1 [AXC-894, 6-amino-2-butoxy-9-(4-(piperidin-1-ylmethyl)benzyl)-7H-purin-8(9H)-one] yielded an EC50 (Table 13, TLR7, read-out: EC50) of 1670 nM, an EC50 (Table 14, read-out: TLR7 EC50) of 2.1 nM and an EC50 (text to Table 14, TLR7, read-out: EC50) of under 10 nM.

In the case of CCCCOc1nc(N)c2[nH]c(=O)n(Cc3ccc(CN4CCC(CCNC(=O)c5ccc(N)c(OC)c5)CC4)cc3)c2n1 [AXC-895, 4-amino-N-(2-(1-(4-((6-amino-2-butoxy-8-oxo-7H-purin-9(8H)-yl)methyl)benzyl)piperidin-4-yl)ethyl)-3-methoxybenzamide], the “TLR7 activity (comparison in words)” value is reported as “highest potency among different payloads tested” and the EC50 (Table 13, TLR7, read-out: EC50) is reported as 11 nM.

Work on CCCCOc1nc(N)c2[nH]c(=O)n(Cc3ccc(CN4CCC(CCNC(=O)[C@H](C)NC(=O)CON)CC4)cc3)c2n1 [AXC-896, (S)—N-(2-(1-(4-((6-amino-2-butoxy-8-oxo-7H-purin-9(8H)-yl)methyl)benzyl)piperidin-4-yl)ethyl)-2-(2-(aminooxy)acetamido)propanamide] yielded an EC50 (Table 13, TLR7, read-out: EC50) of 325 nM.

Work on CCCCOc1nc(N)c2[nH]c(=O)n(Cc3ccc(CN4CCC(CCNC(=O)[C@H](CCCNC(=N)N)NC(=O)CON)CC4)cc3)c2n1 [AXC-897, (S)—N-(2-(1-(4-((6-amino-2-butoxy-8-oxo-7H-purin-9(8H)-yl)methyl)benzyl)piperidin-4-yl)ethyl)-2-(2-(aminooxy)acetamido)-5-guanidinopentanamide] yielded an EC50 (Table 13, TLR7, read-out: EC50) of 330 nM.

Work on CCCCOc1nc(N)c2[nH]c(=O)n(Cc3ccc(CN4CCC(C5CCNCC5)CC4)cc3)c2n1 [AXC-898, 9-(4-(4,4′-bipiperidin-1-ylmethyl)benzyl)-6-amino-2-butoxy-7H-purin-8(9H)-oneone] yielded an EC50 (Table 13, TLR7, read-out: EC50) of 50 nM.

In the case of CCCCOc1cc2c([nH]c(=O)n2Cc2ccc(CN3CCC(CCNC(=O)c4ccc(N)cc4)CC3)cc2)c(N)n1 [AXC-905, 4-amino-N-(2-(1-(4-((4-amino-6-butoxy-2-oxo-2,3-dihydro-1H-imidazo[4,5-c]pyridin-1-yl)methyl)benzyl)piperidin-4-yl)ethyl)benzamidebenzamide], the EC50 (Table 14, read-out: TLR7 EC50) is reported as 2.6 nM.

Work on CCCCOc1nc(N)c2[nH]c(=O)n(Cc3ccc(CN4CCC(c5ccc(N)cc5)CC4)cc3)c2n1 [AXC-908, 6-amino-9-(4-((4-(4-aminophenyl)piperidin-1-yl)methyl)benzyl)-2-butoxy-7H-purin-8(9H)-one] yielded an EC50 (Table 14, read-out: TLR7 EC50) of 11.5 nM.

Work on CCCCOc1nc(N)c2[nH]c(=O)n(Cc3ccc(CN4CCC(C5CCN(C(=O)CCOCCON)CC5)CC4)cc3)c2n1 [AXC-909, 6-amino-9-(4-((1′-(3-(2-(aminooxy)ethoxy)propanoyl)-4,4′-bipiperidin-1-yl)methyl)benzyl)-2-butoxy-7H-purin-8(9H)-one] yielded an EC50 (Table 14, read-out: TLR7 EC50) of 71.9 nM.

CCCCc1nc2c(N)nc3ccccc3c2n1CCCCNC(=O)CON [AXC-910, reference compound] gave an EC50 (Table 14, read-out: TLR7 EC50) of 2590 nM.

CCCCOc1nc(N)c2[nH]c(=O)n(Cc3ccc(CN4CCC(CCNC(=O)[C@@H](N)CCCCNC(=O)CON)CC4)cc3)c2n1 [AXC-913, (S)-2-amino-N-(2-(1-(4-((6-amino-2-butoxy-8-oxo-7,8-dihydro-9H-purin-9-yl)methyl)benzyl)piperidin-4-yl)ethyl)-6-(2-(aminooxy)acetamido)hexanamide] was tested, and the EC50 [2] was 29.6 nM.

In the case of CCCCOc1nc(N)c2[nH]c(=O)n(Cc3ccc(CN4CCC(CCNC(=O)[C@H](CCCCNC(=O)CON)NC(=O)[C@H](C)NC(=O)[C@@H](N)C(C)C)CC4)cc3)c2n1 [AXC-923, (S)—N-(2-(1-(4-((6-amino-2-butoxy-8-oxo-7,8-dihydro-9H-purin-9-yl)methyl)benzyl)piperidin-4-yl)ethyl)-2-((S)-2-((S)-2-amino-3-methylbutanamido)propanamido)-6-(2-(aminooxy)acetamido)hexanamide], the EC50 [2] is reported as 434 nM.

For CCCCOc1nc(N)c2[nH]c(=O)n(Cc3ccc(CN4CCC(CCNC(=O)[C@H](CCCCNC(=O)CON)NC(=O)CCOCCOCCOCCOCCOCCOCCOCCOCCOCCOCCOCCOCCOCCOCCOCCOCCOCCOCCOCCOCCOCCOCCOCCOC)CC4)cc3)c2n1 [AXC-924, (S)—N-(2-(1-(4-((6-amino-2-butoxy-8-oxo-7,8-dihydro-9H-purin-9-yl)methyl)benzyl)piperidin-4-yl)ethyl)-6-(2-(aminooxy)acetamido)-2-PEG24-amidohexanamide], the EC50 [2] was 398 nM.

In the case of CCCCOc1nc(N)c2[nH]c(=O)n(Cc3ccc(CN4CCC(CCNC(=O)[C@H](CCCCNC(=O)CON)NC(=O)OCc5ccc(NC(=O)[C@H](C)NC(=O)[C@@H](NC(=O)CCOCCOCCOCCOCCOCCOCCOCCOCCOCCOCCOCCOCCOCCOCCOCCOCCOCCOCCOCCOCCOCCOCCOCCOC)C(C)C)cc5)CC4)cc3)c2n1 [AXC-925, 4-((S)-2-((S)-3-methyl-2-PEG24-amidobutanamido)propanamido)benzyl ((S)-1-((2-(1-(4-((6-amino-2-butoxy-8-oxo-7,8-dihydro-9H-purin-9-yl)methyl)benzyl)piperidin-4-yl)ethyl)amino)-6-(2-(aminooxy)acetamido)-1-oxohexan-2-yl)carbamate], the EC50 [2] is reported as 1590 nM.

With CCCCOc1nc(N)c2[nH]c(=O)n(Cc3ccc(CN4CCC(CCNC(=O)[C@H](CCCCNC(=O)CON)NC(=O)OCc5ccc(NC(=O)[C@H](C)NC(=O)[C@@H](NC(C)=O)C(C)C)cc5)CC4)cc3)c2n1 [AXC-926, 4-((S)-2-((S)-2-acetamido-3-methylbutanamido)propanamido)benzyl ((S)-1-((2-(1-(4-((6-amino-2-butoxy-8-oxo-7,8-dihydro-9H-purin-9-yl)methyl)benzyl)piperidin-4-yl)ethyl)amino)-6-(2-(aminooxy)acetamido)-1-oxohexan-2-yl)carbamate] the EC50 [2] was 824 nM.

CCCCOc1nc(N)c2[nH]c(=O)n(Cc3ccc(CN4CCC(CCNC(=O)[C@@H](N)Cc5ccc(Cn6cc(CON)nn6)cc5)CC4)cc3)c2n1 [AXC-931, (S)-2-amino-N-(2-(1-(4-((6-amino-2-butoxy-8-oxo-7,8-dihydro-9H-purin-9-yl)methyl)benzyl)piperidin-4-yl)ethyl)-3-(4-((4-((aminooxy)methyl)-1H-1,2,3-triazol-1-yl)methyl)phenyl)propanamide] showed an EC50 (Table 19, TLR7, drug-linkers with PEG shielding, read-out: EC50) of 490 nM.
